The text below walks through data of patent US10428066B2, “Imidazo[4,5-C]pyridine and pyrrolo[2,3-C]pyridine derivatives as SSAO inhibitors” (PROXIMAGEN, LLC, priority 2013, dated 2019).

Counter-ions that a name gives are not always drawn.

purified recombinantly expressed human SSAO, sequence (Q16853 29-763): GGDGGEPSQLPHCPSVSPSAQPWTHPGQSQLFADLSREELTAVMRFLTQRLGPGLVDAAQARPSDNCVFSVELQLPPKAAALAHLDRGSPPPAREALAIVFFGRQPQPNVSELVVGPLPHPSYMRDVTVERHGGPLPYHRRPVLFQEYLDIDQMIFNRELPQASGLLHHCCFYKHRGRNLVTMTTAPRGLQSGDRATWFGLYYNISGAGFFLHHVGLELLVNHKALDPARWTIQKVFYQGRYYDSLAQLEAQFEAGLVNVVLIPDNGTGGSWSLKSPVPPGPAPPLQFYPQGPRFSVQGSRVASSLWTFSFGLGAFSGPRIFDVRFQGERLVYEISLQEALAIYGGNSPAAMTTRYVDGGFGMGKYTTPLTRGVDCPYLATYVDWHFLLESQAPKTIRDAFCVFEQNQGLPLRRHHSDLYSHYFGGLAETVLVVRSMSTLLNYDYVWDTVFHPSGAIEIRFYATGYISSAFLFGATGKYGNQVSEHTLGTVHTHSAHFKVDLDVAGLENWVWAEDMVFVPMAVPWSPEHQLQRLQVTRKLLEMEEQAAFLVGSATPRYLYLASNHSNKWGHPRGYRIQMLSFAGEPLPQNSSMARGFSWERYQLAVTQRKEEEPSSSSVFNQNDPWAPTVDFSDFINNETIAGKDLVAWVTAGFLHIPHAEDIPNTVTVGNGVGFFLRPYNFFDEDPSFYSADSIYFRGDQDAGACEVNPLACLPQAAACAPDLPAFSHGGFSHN

The assay concerns the target purified recombinantly expressed human SSAO (Homo sapiens (Human), UniProt Q16853). The experiment in a line: SSAO enzyme inhibition assay (HRP-coupled hydrogen peroxide detection or 14C-benzaldehyde detection, benzylamine substrate). The format is biochemical. As to conditions: human recombinant SSAO, RT. The method, then:
All primary assays were performed at RT. with purified recombinantly expressed human SSAO. Enzyme was prepared essentially as described in Öhman et al. (Protein Expression and Purification 46 (2006) 321-331). In addition, secondary- and selectivity assays were performed using SSAO prepared from various tissues or purified rat recombinant SSAO. The enzyme activity was assayed with benzylamine as substrate by measuring either benzaldehyde production, using ^14C-labeled substrate, or by utilizing the production of hydrogen peroxide in a horseradish peroxidase (HRP) coupled reaction. Briefly, test compounds were dissolved in dimethyl sulfoxide (DMSO) to a concentration of 10 mM. Dose-response measurements were assayed by either creating 1:10 serial dilutions in DMSO to produce a 7 point curve or by making 1:3 serial dilutions in DMSO to produce 11 point curves.
In a horseradish peroxidase (HRP) coupled reaction, hydrogen peroxide oxidation of 10-acetyl-3,7-dihydroxyphenoxazine produced resorufin, which is a highly fluorescent compound (Zhout and Panchuk-Voloshina. Analytical Biochemistry 253 (1997) 169-174; Amplex® Red Hydrogen Peroxide/peroxidase Assay kit, Invitrogen A22188). Enzyme and compounds in 50 mM sodium phosphate, pH 7.4 were set to pre-incubate in flat-bottomed microtiter plates for approximately 15 min before initiating the reaction by addition of a mixture of HRP, benzylamine and Amplex reagent. Benzylamine concentration was fixed at a concentration corresponding to the Michaelis constant, determined using standard procedures. Fluorescence intensity was then measured at several time points during 1-2 h, exciting at 544 nm and reading the emission at 590 nm. For the human SSAO assay final concentrations of the reagents in the assay wells were: SSAO enzyme 1 ug/ml, benzylamine 100 uM, Amplex reagent 20 uM, HRP 0.1 U/mL and varying concentrations of test compound. The inhibition was measured as % decrease of the signal compared to a control without inhibitor (only diluted DMSO). The background signal from a sample containing no SSAO enzyme was subtracted from all data points. Data was fitted to a four parameter logistic model and IC50 values were calculated using the GraphPad Prism 4 or XLfit 4 programs.
SSAO activity was assayed using 14C-labeled benzylamine and analysed by measuring radioactive benzaldehyde. In a white 96-well optiplate (Packard), 20 uL of diluted test compound was pre-incubated at room temperature with 20 uL SSAO enzyme for approximately 15 min with continuous agitation. All dilutions were made with PBS. The reaction was initiated by adding 20 uL of the benzylamine substrate solution containing [7-14C] Benzylamine hydrochloride (CFA589, GE Healthcare). The plate was incubated for 1 h as above after which the reaction was stopped by acidification (10 uL 1M aq HCl). Then 90 uL Micro Scint-E solution (Perkin-Elmer) was added to each well and the plate was continuously mixed for 15 min. Phase separation occurred instantly and activity was read in a Topcount scintillation counter (Perkin-Elmer). In the final reaction well, the human recombinant SSAO concentration was 10 ug/ml. In order to optimize sensitivity, the substrate concentration was decreased as compared to the HRP coupled assay in order to get a higher fraction of radioactive product. In the human SSAO assay, benzylamine concentration was 40 uM (0.2 uCi/mL). Data was analysed as above.
Take `Clc1ccc(-n2c(-c3ccc(CN4CCOCC4)nc3)nc3ccncc32)cc1` [Example 3, 4-({5-[3-(4-Chlorophenyl)-3H-imidazo[4,5-c]pyridin-2-yl]pyridin-2-yl}methyl)morpholine]: the IC50 is 50 to 200 nM.
`Fc1cc(Cl)ccc1-n1c(-c2cnc(N3CCOCC3)nc2)nc2ccncc21` [Example 77, 4-{5-[3-(4-Chloro-2-fluorophenyl)-3H-imidazo[4,5-c]pyridin-2-yl]pyrimidin-2-yl}morpholine]: the IC50 was 200 to 1200 nM.
For the compound `NC(=O)N1CCCN(c2ccc(-c3nc4ccncc4n3-c3ccc(F)cc3)cn2)CC1` [Example 94, 4-{5-[3-(4-Fluorophenyl)-3H-imidazo[4,5-c]pyridin-2-yl]pyridin-2-yl}-1,4-diazepane-1-carboxamide], the IC50 was in the range of 200 to 1200 nM.
With `Nc1ccc(-c2nc3ccncc3n2-c2ccc(Cl)cc2)cn1` [Example 110, 5-[3-(4-Chlorophenyl)-3H-imidazo[4,5-c]pyridin-2-yl]pyridin-2-amine], the IC50 was 200 to 1200 nM.
For the compound `Cc1cc(NC2CCOCC2)ncc1-c1nc2ccncc2n1-c1ccc(F)cc1` [Example 100, 5-[3-(4-Fluorophenyl)-3H-imidazo[4,5-c]pyridin-2-yl]-4-methyl-N-(oxan-4-yl)pyridin-2-amine], the IC50 was in the range of 200 to 1200 nM.
To `Fc1ccccc1-n1c(-c2cnc(N3CCOCC3)nc2)nc2ccncc21` [Example 60, 4-{5-[3-(2-Fluorophenyl)-3H-imidazo[4,5-c]pyridin-2-yl]pyrimidin-2-yl}morpholine] belongs 50 to 200 nM.
With `Clc1ccc(-n2c(-c3cnc[nH]3)nc3ccncc32)cc1` [Example 44, 5-[3-(4-Chlorophenyl)-3H-imidazo[4,5-c]pyridin-2-yl]-1H-imidazole], the IC50 was 200 to 1200 nM.
To `Fc1ccc(-n2c(-c3cnc(NC4CC4)nc3)nc3ccncc32)cc1` [Example 10, N-Cyclopropyl-5-[3-(4-fluorophenyl)-3H-imidazo[4,5-c]pyridin-2-yl]pyrimidin-2-amine] belongs 50 to 200 nM; to `Cc1nc(N2CCOCC2)ncc1-c1nc2ccncc2n1-c1ccc(F)cc1` [Example 26, 4-{5-[3-(4-Fluorophenyl)-3H-imidazo[4,5-c]pyridin-2-yl]-4-methylpyrimidin-2-yl}morpholine], 50 to 200 nM.
For the compound `Cn1cc(-c2nc3ccncc3n2-c2ccc(Cl)cc2)ccc1=O` [Example 33, 5-[3-(4-Chlorophenyl)-3H-imidazo[4,5-c]pyridin-2-yl]-1-methyl-1,2-dihydropyridin-2-one], the IC50 was in the range of 200 to 1200 nM.
To `Cc1cc(N2CCOCC2)nc(C)c1-c1nc2ccncc2n1-c1ccc(F)cc1` [Example 29, 4-{5-[3-(4-Fluorophenyl)-3H-imidazo[4,5-c]pyridin-2-yl]-4,6-dimethylpyridin-2-yl}morpholine] belongs 200 to 1200 nM.
Regarding `Cc1nc(N2CCOCC2)ccc1-c1nc2ccncc2n1-c1ccc(F)cc1` [Example 108, 4-{5-[3-(4-Fluorophenyl)-3H-imidazo[4,5-c]pyridin-2-yl]-6-methylpyridin-2-yl}morpholine], the IC50 lay in the range of 200 to 1200 nM.
Take `Cc1cc(F)ccc1-n1c(-c2ccc(N3CCOCC3)nc2)nc2ccncc21` [Example 62, 4-{5-[3-(4-Fluoro-2-methylphenyl)-3H-imidazo[4,5-c]pyridin-2-yl]pyridin-2-yl}morpholine]: the IC50 fell in the range of 50 to 200 nM.
For `Nc1ccc(-c2nc3ccncc3n2-c2ccc(Cl)cc2F)cn1` [Example 105, 5-[3-(4-Chloro-2-fluorophenyl)-3H-imidazo[4,5-c]pyridin-2-yl]pyridin-2-amine], the IC50 was 200 to 1200 nM.
For `NC(=O)N1CCN(c2ncc(-c3nc4ccncc4n3-c3ccc(Cl)cc3)o2)CC1` [Example 93, 4-{5-[3-(4-Chlorophenyl)-3H-imidazo[4,5-c]pyridin-2-yl]-1,3-oxazol-2-yl}piperazine-1-carboxamide], the IC50 fell in the range of 50 to 200 nM.
For the compound `NC(=O)NC1CCN(c2ccc(-c3nc4ccncc4n3-c3ccc(Cl)cc3)cn2)CC1` [Example 91, (1-{5-[3-(4-Chlorophenyl)-3H-imidazo[4,5-c]pyridin-2-yl]pyridin-2-yl}piperidin-4-yl)urea; bis(trifluoroacetic acid)], the IC50 was 200 to 1200 nM.
As for `Fc1ccc(-n2c(-c3cnc(N4CCOCC4)c(F)c3)nc3ccncc32)cc1` [Example 98, 4-{3-Fluoro-5-[3-(4-fluorophenyl)-3H-imidazo[4,5-c]pyridin-2-yl]pyridin-2-yl}morpholine], the figure is 50 to 200 nM.
With `Clc1ccc(-n2c(-c3cncc(Cl)c3)cc3ccncc32)cc1` [Example 150, 3-Chloro-5-[1-(4-chlorophenyl)-1H-pyrrolo[2,3-c]pyridin-2-yl]pyridine], the IC50 lay within 50 to 200 nM.
Take `Fc1ccc(-n2c(-c3cnc(NC4CCOCC4)nc3)nc3ccncc32)cc1` [Example 20, 5-[3-(4-Fluorophenyl)-3H-imidazo[4,5-c]pyridin-2-yl]-N-(oxan-4-yl)pyrimidin-2-amine]: the IC50 was in the range of 50 to 200 nM.
Take `Cc1ccc(-n2c(-c3ccc(N4CCOCC4)nc3)nc3ccncc32)cc1` [Example 63, 4-{5-[3-(4-Methylphenyl)-3H-imidazo[4,5-c]pyridin-2-yl]pyridin-2-yl}morpholine]: the IC50 was 200 to 1200 nM.
As for `Clc1ccc(-n2c(-c3csc(N4CCNCC4)n3)nc3ccncc32)cc1` [Example 17, 1-{4-[3-(4-Chlorophenyl)-3H-imidazo[4,5-c]pyridin-2-yl]-1,3-thiazol-2-yl}piperazine dihydrochloride], the IC50 was 200 to 1200 nM.
For `CCn1ccc(-c2cc3ccncc3n2-c2ccc(Cl)cc2)cc1=O` [Example 144, 4-[1-(4-Chlorophenyl)-1H-pyrrolo[2,3-c]pyridin-2-yl]-1-ethyl-1,2-dihydropyridin-2-one], the IC50 was 50 to 200 nM.
Regarding `Clc1ccc(-n2c(-c3cccnc3)nc3ccncc32)cc1` [Example 1, 3-[3-(4-Chlorophenyl)-3H-imidazo[4,5-c]pyridin-2-yl]pyridine], the IC50 is 200 to 1200 nM.
For the compound `Fc1ccc(-n2c(-c3cnc(N4CCOCC4)nc3)nc3ccncc32)c(Cl)c1` [Example 56, 4-{5-[3-(2-Chloro-4-fluorophenyl)-3H-imidazo[4,5-c]pyridin-2-yl]pyrimidin-2-yl}morpholine], the IC50 is 200 to 1200 nM.
On to `Cc1ccc(-n2c(-c3cnc(N4CCOCC4)nc3)nc3ccncc32)cc1` [Example 57, 4-{5-[3-(4-Methylphenyl)-3H-imidazo[4,5-c]pyridin-2-yl]pyrimidin-2-yl}morpholine], for which the IC50 was in the range of 50 to 200 nM.
To `O=C(NC1CC1)c1ccc(-c2nc3ccncc3n2-c2ccc(Cl)cc2)cn1` [Example 14, 5-[3-(4-Chlorophenyl)-3H-imidazo[4,5-c]pyridin-2-yl]-N-cyclopropylpyridine-2-carboxamide] belongs 200 to 1200 nM; to `COCCN(C)c1ncc(-c2nc3ccncc3n2-c2ccc(C)cc2)cn1` [Example 117, N-(2-Methoxyethyl)-N-methyl-5-[3-(4-methylphenyl)-3H-imidazo[4,5-c]pyridin-2-yl]pyrimidin-2-amine], 200 to 1200 nM.
Turning to `O=c1cc(-c2cc3ccncc3n2-c2ccc(Cl)cc2)cn[nH]1` [Example 146, 5-[1-(4-Chlorophenyl)-1H-pyrrolo[2,3-c]pyridin-2-yl]-2,3-dihydropyridazin-3-one], the IC50 was 50 to 200 nM.
To `Cn1ccc(-c2nc3ccncc3n2-c2ccc(F)cc2)cc1=O` [Example 114, 4-[3-(4-Fluorophenyl)-3H-imidazo[4,5-c]pyridin-2-yl]-1-methyl-1,2-dihydropyridin-2-one] belongs 200 to 1200 nM; to `Cc1ccc(-n2c(-c3cnc(N4CCOCC4)nc3)cc3ccncc32)cc1` [Example 130, 4-{5-[1-(4-Methylphenyl)-1H-pyrrolo[2,3-c]pyridin-2-yl]pyrimidin-2-yl}morpholine], 50 to 200 nM.
As for `Brc1ccc(-n2c(-c3cnc(N4CCOCC4)nc3)nc3ccncc32)cc1` [Example 59, 4-{5-[3-(4-Bromophenyl)-3H-imidazo[4,5-c]pyridin-2-yl]pyrimidin-2-yl}morpholine], the IC50 was 50 to 200 nM.

The IC50 is the point on the concentration scale where inhibition reaches its midpoint.
